Assay results reported in the supplement of paper PMC10883282.
± gives the standard deviation of the averaged measurements.

Assays:
Assay in all cases: relative viability vs DMSO control (72 h) (fraction); higher = more viable cells
MES-SA = tested on: MES-SA
Method in brief: (§1)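 Sarcoma cell lines went into 384-well plates at densities chosen to reach 80–90% confluence. After 24 h, each well received 2.5 µl of serially diluted compound, with source plates running from 10 mM to 0.0002 mM, and the plates were kept 72 h at 37 °C, 5% CO2, alongside 0.1% DMSO vehicle and a 5 µM positive control. Relative viability was derived from ATPLite readings as percent growth and averaged over up to triplicate wells. The data were then rescaled so that 1 stands for full and 0 for none.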

SK-LMS-1 = tested on: SK-LMS-1
Method in brief: as §1

SK-ES-1 = tested on: SK-ES-1
Method in brief: as §1

SYO-1 = tested on: SYO-1
Method in brief: as §1

SW1353 = tested on: SW1353
Method in brief: as §1

RD-ES = tested on: RD-ES
Method in brief: as §1

VA-ES-BJ = tested on: VA-ES-BJ
Method in brief: as §1

HT1080 = tested on: HT1080
Method in brief: as §1

RD = tested on: RD
Method in brief: as §1

KHOS-240S = tested on: KHOS-240S
Method in brief: as §1

SW982 = tested on: SW982
Method in brief: as §1

G401 = tested on: G401
Method in brief: as §1

CC1(C)CC=C(c2nc(C3CC(C)(C)OC(C)(C)C3)ccc2NC(=O)c2nc(C#N)c[nH]2)CC1 [Edicotinib]
Conditions | relative viability
G401, 0.00017 µM | 1.02 ± 0.033
G401, 0.00051 µM | 0.99 ± 0.039
G401, 0.00152 µM | 1 ± 0.034
G401, 0.00457 µM | 1.01 ± 0.042
G401, 0.01372 µM | 1.04 ± 0.011
G401, 0.04115 µM | 0.9919 ± 0.0064
G401, 0.1235 µM | 1.02 ± 0.053
G401, 0.3704 µM | 1 ± 0.017
G401, 1.111 µM | 0.952 ± 0.021
G401, 3.333 µM | 0.989 ± 0.052
G401, 10 µM | 0.929 ± 0.018
HT1080, 0.00017 µM | 1.03 ± 0.036
HT1080, 0.00051 µM | 1.07 ± 0.024
HT1080, 0.00152 µM | 1.03 ± 0.021
HT1080, 0.00457 µM | 1.041 ± 0.0018
HT1080, 0.01372 µM | 1.04 ± 0.058
HT1080, 0.04115 µM | 1.03 ± 0.044
HT1080, 0.1235 µM | 1.037 ± 0.002
HT1080, 0.3704 µM | 1.021 ± 0.0094
HT1080, 1.111 µM | 0.9787 ± 0.0021
HT1080, 3.333 µM | 1.019 ± 0.0056
HT1080, 10 µM | 0.993 ± 0.047
KHOS-240S, 0.00017 µM | 1.03 ± 0.027
KHOS-240S, 0.00051 µM | 1.01 ± 0.026
KHOS-240S, 0.00152 µM | 1.02 ± 0.03
KHOS-240S, 0.00457 µM | 1.05 ± 0.038
KHOS-240S, 0.01372 µM | 1.01 ± 0.015
KHOS-240S, 0.04115 µM | 1.05 ± 0.038
KHOS-240S, 0.1235 µM | 1.05 ± 0.021
KHOS-240S, 0.3704 µM | 1.05 ± 0.062
KHOS-240S, 1.111 µM | 1.118 ± 0.011
KHOS-240S, 3.333 µM | 1.06 ± 0.035
KHOS-240S, 10 µM | 0.841 ± 0.29
MES-SA, 0.00017 µM | 0.945 ± 0.025
MES-SA, 0.00051 µM | 0.962 ± 0.039
MES-SA, 0.00152 µM | 0.935 ± 0.022
MES-SA, 0.00457 µM | 0.939 ± 0.035
MES-SA, 0.01372 µM | 0.9423 ± 0.0085
MES-SA, 0.04115 µM | 0.93 ± 0.017
MES-SA, 0.1235 µM | 0.909 ± 0.025
MES-SA, 0.3704 µM | 0.92 ± 0.021
MES-SA, 1.111 µM | 0.868 ± 0.017
MES-SA, 3.333 µM | 0.879 ± 0.019
MES-SA, 10 µM | 0.887 ± 0.021
RD, 0.00017 µM | 1.123 ± 0.0066
RD, 0.00051 µM | 1.09 ± 0.02
RD, 0.00152 µM | 1.12 ± 0.01
RD, 0.00457 µM | 1.07 ± 0.065
RD, 0.01372 µM | 1.07 ± 0.058
RD, 0.04115 µM | 1.12 ± 0.025
RD, 0.1235 µM | 1.1 ± 0.07
RD, 0.3704 µM | 1.1 ± 0.056
RD, 1.111 µM | 1.07 ± 0.049
RD, 3.333 µM | 1.05 ± 0.03
RD, 10 µM | 1.06 ± 0.085
RD-ES, 0.00017 µM | 0.9975 ± 0.0079
RD-ES, 0.00051 µM | 1.01 ± 0.036
RD-ES, 0.00152 µM | 1.02 ± 0.062
RD-ES, 0.00457 µM | 1.02 ± 0.021
RD-ES, 0.01372 µM | 1.01 ± 0.033
RD-ES, 0.04115 µM | 0.999 ± 0.033
RD-ES, 0.1235 µM | 1.021 ± 0.0092
RD-ES, 0.3704 µM | 1.01 ± 0.019
RD-ES, 1.111 µM | 1.01 ± 0.039
RD-ES, 3.333 µM | 0.987 ± 0.021
RD-ES, 10 µM | 0.968 ± 0.11
SK-ES-1, 0.00017 µM | 1.04 ± 0.017
SK-ES-1, 0.00051 µM | 1.06 ± 0.043
SK-ES-1, 0.00152 µM | 1.04 ± 0.03
SK-ES-1, 0.00457 µM | 1.01 ± 0.035
SK-ES-1, 0.01372 µM | 1.04 ± 0.033
SK-ES-1, 0.04115 µM | 1.06 ± 0.044
SK-ES-1, 0.1235 µM | 1.04 ± 0.014
SK-ES-1, 0.3704 µM | 1 ± 0.026
SK-ES-1, 1.111 µM | 0.986 ± 0.026
SK-ES-1, 3.333 µM | 0.958 ± 0.05
SK-ES-1, 10 µM | 0.969 ± 0.032
SK-LMS-1, 0.00017 µM | 1.01 ± 0.047
SK-LMS-1, 0.00051 µM | 1.02 ± 0.036
SK-LMS-1, 0.00152 µM | 1.04 ± 0.048
SK-LMS-1, 0.00457 µM | 1.04 ± 0.081
SK-LMS-1, 0.01372 µM | 1.07 ± 0.024
SK-LMS-1, 0.04115 µM | 1.05 ± 0.041
SK-LMS-1, 0.1235 µM | 0.995 ± 0.02
SK-LMS-1, 0.3704 µM | 0.997 ± 0.052
SK-LMS-1, 1.111 µM | 0.929 ± 0.044
SK-LMS-1, 3.333 µM | 1.04 ± 0.04
SK-LMS-1, 10 µM | 1.013 ± 0.0086
SW982, 0.00017 µM | 1.05 ± 0.027
SW982, 0.00051 µM | 1.04 ± 0.043
SW982, 0.00152 µM | 1.07 ± 0.043
SW982, 0.00457 µM | 1.07 ± 0.054
SW982, 0.01372 µM | 1.08 ± 0.045
SW982, 0.04115 µM | 1.064 ± 0.0075
SW982, 0.1235 µM | 1.05 ± 0.019
SW982, 0.3704 µM | 1.066 ± 0.0053
SW982, 1.111 µM | 1.07 ± 0.03
SW982, 3.333 µM | 1.07 ± 0.032
SW982, 10 µM | 1.07 ± 0.017
SW1353, 0.00017 µM | 0.973 ± 0.056
SW1353, 0.00051 µM | 0.987 ± 0.023
SW1353, 0.00152 µM | 0.958 ± 0.015
SW1353, 0.00457 µM | 0.9936 ± 0.0062
SW1353, 0.01372 µM | 0.9624 ± 0.0069
SW1353, 0.04115 µM | 0.965 ± 0.026
SW1353, 0.1235 µM | 0.96 ± 0.05
SW1353, 0.3704 µM | 1.03 ± 0.048
SW1353, 1.111 µM | 1.09 ± 0.016
SW1353, 3.333 µM | 1.08 ± 0.044
SW1353, 10 µM | 1.098 ± 0.0084
SYO-1, 0.00017 µM | 0.931 ± 0.086
SYO-1, 0.00051 µM | 0.925 ± 0.041
SYO-1, 0.00152 µM | 0.919 ± 0.052
SYO-1, 0.00457 µM | 0.96 ± 0.057
SYO-1, 0.01372 µM | 0.963 ± 0.069
SYO-1, 0.04115 µM | 0.94 ± 0.044
SYO-1, 0.1235 µM | 0.961 ± 0.051
SYO-1, 0.3704 µM | 1.01 ± 0.052
SYO-1, 1.111 µM | 1.03 ± 0.054
SYO-1, 3.333 µM | 0.981 ± 0.024
SYO-1, 10 µM | 1.04 ± 0.045
VA-ES-BJ, 0.00017 µM | 1.04 ± 0.073
VA-ES-BJ, 0.00051 µM | 1.05 ± 0.053
VA-ES-BJ, 0.00152 µM | 1.04 ± 0.032
VA-ES-BJ, 0.00457 µM | 1.06 ± 0.017
VA-ES-BJ, 0.01372 µM | 1.03 ± 0.066
VA-ES-BJ, 0.04115 µM | 0.98 ± 0.094
VA-ES-BJ, 0.1235 µM | 0.977 ± 0.1
VA-ES-BJ, 0.3704 µM | 1.03 ± 0.047
VA-ES-BJ, 1.111 µM | 1.04 ± 0.066
VA-ES-BJ, 3.333 µM | 1.05 ± 0.02
VA-ES-BJ, 10 µM | 1.04 ± 0.039
